38 compounds from patent US5336690A, “Aminosulfonyl carbamates composition and method of use to treat hypercholesterolemia and atherosclerosis” (Warner-Lambert Company, priority 1993, dated 1994) can be followed below.

Structures can show the parent of a compound that is named as a salt.

The nature of one test: APCC in vivo screen: blood cholesterol in male Sprague-Dawley rats on high fat, high cholesterol diet with 0.5% cholic acid. The settings on record: Rattus norvegicus, single dose 30 mg/kg, high fat high cholesterol diet overnight, read-out: % Change (mg/dl) (cholesterol). An excerpt: In one in vivo screen designated APCC, male Sprague-Dawley rats (200 to 225 g) were randomly divided into treatment groups and dosed at 4 PM with either vehicle (CMC/Tween) or suspensions of compounds in vehicle. The normal chow diet was then replaced with a high fat, high cholesterol diet with 0.5% cholic acid. The rats consumed this diet ad libitum during the night and were sacrificed at 8 AM to obtain blood samples for cholesterol analysis using standard procedures. Statistical differences between mean cholesterol values for the same vehicle were determined using analysis of variance followed by Fisher's least significant test. The compounds were dosed at 30 mg/kg unless otherwise noted.
For `COc1cc(C(C)(C)C)c(OC(=O)NS(=O)(=O)NCC(c2ccccc2)c2ccccc2)c(C(C)(C)C)c1` [Example 3], the change in vivo at 30 mg/kg was -55%.
Still for that read-out and setting: to `COc1cc(C(C)(C)C)c(OC(=O)NS(=O)(=O)Nc2c(C(C)C)cccc2C(C)C)c(C(C)(C)C)c1` [Example 4, 2,6-bis(1,1-dimethylethyl)-4-methoxy phenyl[[[2,6-bis(1-methylethyl)phenyl]amino]sulfonyl]carbamate] belongs -77%; to `CC(C)c1cccc(C(C)C)c1OC(=O)NS(=O)(=O)N(c1ccccc1)c1ccccc1` [Example 10, 2,6-bis(1-methylethyl)phenyl[(diphenylamino)sulfonyl]carbamate], -67%; to `CC(C)c1cccc(C(C)C)c1OC(=O)NS(=O)(=O)N(Cc1ccccc1)Cc1ccccc1` [Example 12, 2,6-Bis(1-methylethyl)phenyl[[bis(phenylmethyl)amino]sulfonyl]carbamate], -43%.
Still for that read-out and setting: for `CC(C)c1cccc(C(C)C)c1OC(=O)NS(=O)(=O)Nc1nc2ccccc2[nH]1` [Example 13, 2,6-Bis(1-methylethyl)phenyl[(1H-benzimidazol-2-ylamino)sulfonyl]carbamate] the value was 8%; for `CCCCN(CCCC)S(=O)(=O)NC(=O)Oc1c(C(C)(C)C)cc(C)cc1C(C)(C)C` [Example 22, 2,6-Bis(1,1-dimethylethyl)-4-methylphenyl[(dibutylamino)sulfonyl]carbamate], -4%; for `CCCCCN(CCCCC)S(=O)(=O)NC(=O)Oc1c(C(C)(C)C)cc(C)cc1C(C)(C)C` [Example 23, 2,6-Bis(1,1-dimethylethyl)-4-methylphenyl[(dipentylamino)sulfonyl]carbamat], -42%.
Still for that read-out and setting: to `Cc1cc(C(C)(C)C)c(OC(=O)NS(=O)(=O)N(C(C)C)C(C)C)c(C(C)(C)C)c1` [Example 24, 2,6-Bis(1,1-dimethylethyl)-4-methylphenyl[[bis(1-methylethyl)amino]sulfonyl]carbamate] belongs -19%; to `CCCCCCN(CCCCCC)S(=O)(=O)NC(=O)Oc1c(C(C)(C)C)cc(C)cc1C(C)(C)C` [Example 25, 2,6-Bis(1,1-dimethylethyl)-4-methylphenyl[(dihexylamino)sulfonyl]carbamate], -40%; to `CCCCCCNS(=O)(=O)NC(=O)Oc1c(C(C)(C)C)cc(C)cc1C(C)(C)C` [Example 26, 2,6-Bis(1,1-dimethylethyl)-4-methylphenyl[(hexylamino)sulfonyl]carbamate], -52%.
Regarding `CCCCCCCCN(C)S(=O)(=O)NC(=O)Oc1c(C(C)(C)C)cc(C)cc1C(C)(C)C` [Example 29, 2,6-Bis(1,1-dimethylethyl)-4-methylphenyl[(methyloctylamino)sulfonyl]carbamate], the change in vivo at 30 mg/kg was -55%.
Regarding `Cc1cc(C(C)(C)C)c(OC(=O)NS(=O)(=O)N(CC2CCCO2)CC2CCCO2)c(C(C)(C)C)c1` (centres unmarked) [Example 30, 2,6-Bis(1,1-dimethylethyl)4-methylphenyl[[bis[(tetrahydro-2-furanyl)methyl]amino]sulfonyl]carbamate], the change in vivo at 30 mg/kg turned out to be 2%.
On to `CCCCCCCCN(CCCCCCCC)S(=O)(=O)NC(=O)Oc1c(C(C)(C)C)cc(C)cc1C(C)(C)C` [Example 31, 2,6-Bis(1,1-dimethylethyl)-4-methylphenyl[(dioctylamino)sulfonyl]carbamate], for which the change in vivo at 30 mg/kg stood at 0%.
The same measure, in the same setting: for `CCCCCCCCCCN(CCCCCCCCCC)S(=O)(=O)NC(=O)Oc1c(C(C)(C)C)cc(C)cc1C(C)(C)C` [Example 34] the value was -4%.
Regarding `CC(C)c1cccc(C(C)C)c1OC(=O)NS(=O)(=O)N(C(C)C)C(C)C` [Example 35, 2,6-Bis(1-methylethyl)phenyl[[bis(1-methylethyl)amino]sulfonyl]carbamate], the change in vivo at 30 mg/kg was -76%.
Same read-out and setting: for `CC(C)c1cccc(C(C)C)c1OC(=O)NS(=O)(=O)N(Cc1ccccc1)C(C)C` [Example 36] the value was -70%; for `CCCCCCNS(=O)(=O)NC(=O)Oc1c(C(C)C)cccc1C(C)C` [Example 37, 2,6-Bis(1-methylethyl)phenyl[(hexylamino)sulfonyl]carbamate], -58%; for `CCCCCCCCN(CCCCCCCC)S(=O)(=O)NC(=O)Oc1c(C(C)C)cccc1C(C)C` [Example 38, 2,6-Bis(1-methylethyl)phenyl[(dioctylamino)sulfonyl]carbamate], -70%.
With `CC(C)c1cccc(C(C)C)c1OC(=O)NS(=O)(=O)N(C(C)C)C1CCCCC1` [Example 39, 2,6-Bis(1-methylethyl)phenyl[[cyclohexyl(1-methylethyl)amino]sulfonyl]carbamate], the change in vivo at 30 mg/kg was -60%.
For `CCCCCCCCN(C)S(=O)(=O)NC(=O)Oc1c(C(C)C)cccc1C(C)C` [Example 40, 2,6-Bis(1-methylethyl)phenyl[(methyloctylamino)sulfonyl]carbamate], the change in vivo at 30 mg/kg is -60%.
On the same count and under the same terms, for `CCCCCCN(CCCCCC)S(=O)(=O)NC(=O)Oc1c(C(C)C)cccc1C(C)C` [Example 41, 2,6-Bis(1-methylethyl)phenyl[(dihexylamino)sulfonyl]carbamate] the value was -62%; for `CCCCCN(CCCCC)S(=O)(=O)NC(=O)Oc1c(C(C)C)cccc1C(C)C` [Example 42, 2,6-Bis(1-methylethyl)phenyl[(dipentylamino)sulfonyl]carbamate], -74%.

Staying with this test, now noted: Rattus norvegicus, single dose 50 mg/kg (*), high fat high cholesterol diet overnight, read-out: % Change (mg/dl) (cholesterol).
As for `CC(C)(C)c1cccc(C(C)(C)C)c1OC(=O)NS(=O)(=O)NC(c1ccccc1)c1ccccc1` [Example 5, 2,6-bis(1,1-dimethylethyl)phenyl[[(diphenylmethyl)amino]sulfonyl]carbamate], the change in vivo at 50 mg/kg is -35%.
As to `CC(C)c1cccc(C(C)C)c1NS(=O)(=O)NC(=O)Oc1c(C(C)(C)C)cccc1C(C)(C)C` [Example 6, 2,6-bis(1,1-dimethylethyl)phenyl[[[2,6-bis(1-methylethyl)phenyl]amino]sulfonyl]carbamate], the change in vivo at 50 mg/kg was -57%.
Same read-out and setting: for `CC(C)(C)c1cccc(C(C)(C)C)c1OC(=O)NS(=O)(=O)NCC(c1ccccc1)c1ccccc1` [Example 7, 2,6-bis(1,1-dimethylethyl)phenyl[[(2,2-diphenylethyl)amino]sulfonyl]carbamate] the value was -32%.
On to `CC(C)(C)c1cccc(C(C)(C)C)c1OC(=O)NS(=O)(=O)Nc1ccccc1` [Example 8, 2,6-bis(1,1-dimethylethyl)phenyl[(phenylamino)sulfonyl]carbamate], for which the change in vivo at 50 mg/kg was -26%.
On to `CC(C)(C)c1cccc(C(C)(C)C)c1OC(=O)NS(=O)(=O)N(Cc1ccccc1)Cc1ccccc1` [Example 9], for which the change in vivo at 50 mg/kg was -3%.
Same read-out and setting: for `CC(C)c1cccc(C(C)C)c1OC(=O)NS(=O)(=O)Nc1ccccc1` [Example 14, 2,6-Bis(1-methylethyl)phenyl[(phenylamino)sulfonyl]carbamate] the value was -55%; for `CC(C)c1cccc(C(C)C)c1OC(=O)NS(=O)(=O)NCC(c1ccccc1)c1ccccc1` [Example 15], -29%; for `CC(C)c1cccc(C(C)C)c1NS(=O)(=O)NC(=O)Oc1c(C(C)C)cccc1C(C)C` [Example 16, 2,6-Bis(1-methylethyl)phenyl[[[2,6-bis(1-methylethyl)phenyl]amino]sulfonyl]carbamate], -65%.
On the same count and under the same terms, for `CC(C)c1cccc(C(C)C)c1OC(=O)NS(=O)(=O)NC(c1ccccc1)c1ccccc1` [Example 17, 2,6-Bis(1-methylethyl)phenyl[[(diphenylmethyl)amino]sulfonyl]carbamate] the value was -46%.
On to `Cc1cc(C(C)(C)C)c(OC(=O)NS(=O)(=O)NC(c2ccccc2)c2ccccc2)c(C(C)(C)C)c1` [Example 18, 2,6-Bis(1,1-dimethylethyl)-4-methylphenyl[[(diphenylmethyl)amino]sulfonyl]carbamate], for which the change in vivo at 50 mg/kg was -42%.
As to `Cc1cc(C(C)(C)C)c(OC(=O)NS(=O)(=O)Nc2c(C(C)C)cccc2C(C)C)c(C(C)(C)C)c1` [Example 19], the change in vivo at 50 mg/kg is -56%.
Take `Cc1cc(C(C)(C)C)c(OC(=O)NS(=O)(=O)NCC(c2ccccc2)c2ccccc2)c(C(C)(C)C)c1` [Example 20, 2,6-Bis(1,1-dimethylethyl)-4-methylphenyl[[(2,2-diphenylethyl)amino]sulfonyl]carbamate]: the change in vivo at 50 mg/kg was -54%.
As for `Cc1cc(C(C)(C)C)c(OC(=O)NS(=O)(=O)Nc2ccccc2)c(C(C)(C)C)c1` [Example 21, 2,6-Bis(1,1-dimethylethyl)-4-methylphenyl[(phenylamino)sulfonyl]carbamate], the change in vivo at 50 mg/kg was -33%.

Still in this test, the particulars now being: rat, single dose 30 mg/kg, high fat high cholesterol diet overnight, read-out: % Change (mg/dl) (cholesterol).
In the case of `CCCCCCCCCCCCOC(=O)NS(=O)(=O)Nc1c(C(C)C)cccc1C(C)C` [Example 2], the change in vivo at 30 mg/kg is 0%.
On to `Cc1cc(C(C)(C)C)c(OC(=O)NS(=O)(=O)N(CCCN(C)C)CCCN(C)C)c(C(C)(C)C)c1` [Example 28, 2,6-Bis(1,1-dimethylethyl)-4-methylphenyl[[[bis-3-(di-methylamino)propyl]amino]sulfonyl]carbamate], for which the change in vivo at 30 mg/kg was -13%.

The same test, now with this note: rat, single dose 30 mg/kg, high fat high cholesterol diet overnight, sodium salt, 30 mg/kg.
For the compound `Cc1cc(C(C)(C)C)c(OC(=O)NS(=O)(=O)N(C)CCc2ccccn2)c(C(C)(C)C)c1` [Example 33, 2,6-Bis(1,1-dimethylethyl)-4-methylphenyl[[[methyl 2-(2-pyridinyl)ethyl]amino]sulfonyl]carbamate, sodium salt], the “% Change (mg/dl) (cholesterol)” value is -22 % Change (mg/dl).
